According to patent US20220274979A1 (Bayer Pharma Aktiengesellschaft, priority 2018, published 2022):

Target: T1, hSOS1 (hSOS1-mediated loading of hK-RasG12C-GDP) (Homo sapiens, UniProt Q07889)
T1 construct: hSOS1 (amino acid 564-1049); made in house; host or cells: E. coli BL21 (DE3)
T1 sequence (Q07889 with tags, fused parts or gaps): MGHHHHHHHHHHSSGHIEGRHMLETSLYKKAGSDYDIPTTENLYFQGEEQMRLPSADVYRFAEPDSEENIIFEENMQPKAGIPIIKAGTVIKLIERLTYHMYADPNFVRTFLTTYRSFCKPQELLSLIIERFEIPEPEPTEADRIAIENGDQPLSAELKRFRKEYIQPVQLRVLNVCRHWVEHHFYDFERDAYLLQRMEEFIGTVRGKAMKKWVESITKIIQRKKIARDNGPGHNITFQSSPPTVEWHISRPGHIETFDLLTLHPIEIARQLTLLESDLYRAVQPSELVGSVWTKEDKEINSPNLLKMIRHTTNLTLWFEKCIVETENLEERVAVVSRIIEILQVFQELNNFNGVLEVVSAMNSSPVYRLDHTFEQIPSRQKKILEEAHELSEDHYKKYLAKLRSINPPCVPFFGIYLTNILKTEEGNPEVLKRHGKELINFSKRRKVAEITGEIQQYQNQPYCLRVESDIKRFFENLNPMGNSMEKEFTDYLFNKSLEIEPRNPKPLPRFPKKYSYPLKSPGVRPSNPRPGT
Assay: Biochemical Assay 3: hK-RasG12C activation assay by hSOS1 (loading with fluorescent GTP analog, HTRF)
Settings: no GTP

Row | SMILES | IC50
1 | Cc1nc(NC(C)c2ccc(-c3ccccc3CN(C)C)s2)c2cc(OCCCN(C)C)ncc2n1 (stereo not shown) [Example 72, N-[1-(5-{2-[(dimethylamino)methyl]phenyl}thiophen-2-yl)ethyl]-6-[3-(dimethylamino)propoxy]-2-methylpyrido[3,4-d]pyrimidin-4-amine] | 49 nM
2 | Cc1nc(NC(C)c2ccc(-c3ccccc3CN(C)C)s2)c2cc(OCC3CC3)ncc2n1 (stereo not shown) [Example 73, 6-(cyclopropylmethoxy)-N-[1-(5-{2-[(dimethylamino)methyl]phenyl}thiophen-2-yl)ethyl]-2-methylpyrido[3,4-d]pyrimidin-4-amine] | 138 nM
3 | Cc1nc(NC(C)c2ccc(-c3ccccc3CN(C)C)s2)c2cc(OCCO)ncc2n1 (stereo not shown) [Example 74, 2-[(4-{[1-(5-{2-[(dimethylamino)methyl]phenyl}thiophen-2-yl)ethyl]amino}-2-methylpyrido[3,4-d]pyrimidin-6-yl)oxy]ethanol] | 107 nM
4 | Cc1nc(N[C@H](C)c2cccc(Br)c2)c2cc(OCC3CC3)ncc2n1 [Example 75, N-[(1R)-1-(3-bromophenyl)ethyl]-6-(cyclopropylmethoxy)-2-methylpyrido[3,4-d]pyrimidin-4-amine] | 15200 nM
5 | Cc1nc(NC(C)c2ccc(-c3ccccc3CN(C)C)s2)c2cc(OCCCO)ncc2n1 (stereo not shown) [Example 76, 3-[(4-{[1-(5-{2-[(dimethylamino)methyl]phenyl}thiophen-2-yl)ethyl]amino}-2-methylpyrido[3,4-d]pyrimidin-6-yl)oxy]propan-1-ol] | 73 nM
6 | Cc1nc(NC(C)c2ccc(-c3ccccc3CN(C)C)s2)c2cc(OC3CCS(=N)(=O)CC3)ncc2n1 (stereo not shown) [Example 77, N-[1-(5-{2-[(dimethylamino)methyl]phenyl}-2-thienyl)ethyl]-6-[(1-imino-1-oxidohexahydro-1lambda4-thiopyran-4-yl)oxy]-2-methylpyrido[3,4-d]pyrimidin-4-amine] | 84.3 nM
7 | Cc1nc(N[C@H](C)c2cccc(Br)c2)c2cc(OCCN(C)C)ncc2n1 [Example 78, N-[(1R)-1-(3-bromophenyl)ethyl]-6-[2-(dimethylamino)ethoxy]-2-methylpyrido[3,4-d]pyrimidin-4-amine] | 2270 nM
8 | Cc1nc(N[C@H](C)c2cccc(Br)c2)c2cc(NCCS(C)(=O)=O)ncc2n1 [Example 83] | 1090 nM
9 | Cc1nc(N[C@H](C)c2cccc(Br)c2)c2cc(NCCn3ccnc3)ncc2n1 [Example 84, N4-[(1R)-1-(3-bromophenyl)ethyl]-N6-[2-(1H-imidazol-1-yl)ethyl]-2-methylpyrido[3,4-d]pyrimidine-4,6-diamine] | 1210 nM
10 | Cc1nc(NC(C)c2ccc(-c3ccccc3CN(C)C)s2)c2cc(NCC3CCNC(=O)C3)ncc2n1 (stereo not shown) [Example 86, 4-{[(4-{[1-(5-{2-[(dimethylamino)methyl]phenyl}thiophen-2-yl)ethyl]amino}-2-methylpyrido[3,4-d]pyrimidin-6-yl)amino]methyl}piperidin-2-one] | 144 nM
11 | Cc1nc(NC(C)c2ccc(-c3ccccc3CN(C)C)s2)c2cc(N3CC(NC(=O)CCCn4c(-c5ccccn5)nc(C)c4C)C3)ncc2n1 (stereo not shown) [Example 87, N-[1-(4-{[1-(5-{2-[(dimethylamino)methyl]phenyl}thiophen-2-yl)ethyl]amino}-2-methylpyrido[3,4-d]pyrimidin-6-yl)azetidin-3-yl]-4-[4,5-dimethyl-2-(pyridin-2-yl)-1H-imidazol-1-yl]butanamide] | 228 nM
12 | Cc1nc(NC(C)c2ccc(-c3ccccc3CN(C)C)s2)c2cc(N3CC(NC(=O)c4ccccc4)C3)ncc2n1 (stereo not shown) [Example 88, N-[1-(4-{[1-(5-{2-[(dimethylamino)methyl]phenyl}thiophen-2-yl)ethyl]amino}-2-methylpyrido[3,4-d]pyrimidin-6-yl)azetidin-3-yl]benzamide] | 173 nM
13 | Cc1nc(NC(C)c2ccc(-c3ccccc3CN(C)C)s2)c2cc(N3CC(NC(=O)Cc4ccccc4)C3)ncc2n1 (stereo not shown) [Example 89, N-[1-(4-{[1-(5-{2-[(dimethylamino)methyl]phenyl}thiophen-2-yl)ethyl]amino}-2-methylpyrido[3,4-d]pyrimidin-6-yl)azetidin-3-yl]-2-phenylacetamide] | 132 nM
14 | Cc1nc(NC(C)c2ccc(-c3ccccc3CN(C)C)s2)c2cc(N3CC(NC(=O)C4CCCCC4)C3)ncc2n1 (stereo not shown) [Example 90, N-[1-(4-{[1-(5-{2-[(dimethylamino)methyl]phenyl}thiophen-2-yl)ethyl]amino}-2-methylpyrido[3,4-d]pyrimidin-6-yl)azetidin-3-yl]cyclohexanecarboxamide] | 190 nM
15 | Cc1nc(NC(C)c2ccc(-c3ccccc3CN(C)C)s2)c2cc(N3CC(NC(=O)CC4CC4)C3)ncc2n1 (stereo not shown) [Example 91, 2-cyclopropyl-N-[1-(4-{[1-(5-{2-[(dimethylamino)methyl]phenyl}thiophen-2-yl)ethyl]amino}-2-methylpyrido[3,4-d]pyrimidin-6-yl)azetidin-3-yl]acetamide] | 179 nM
16 | Cc1nc(NC(C)c2ccc(-c3ccccc3CN(C)C)s2)c2cc(N3CC(N)C3)ncc2n1 (stereo not shown) [Example 93, 6-(3-aminoazetidin-1-yl)-N-[1-(5-{2-[(dimethylamino)methyl]phenyl}thiophen-2-yl)ethyl]-2-methylpyrido[3,4-d]pyrimidin-4-amine] | 82.9 nM
17 | Cc1nc(NC(C)c2ccc(-c3ccccc3CN(C)C)s2)c2cc(N3CC(NS(=O)(=O)c4ccccc4)C3)ncc2n1 (stereo not shown) [Example 94, N-[1-(4-{[1-(5-{2-[(dimethylamino)methyl]phenyl}thiophen-2-yl)ethyl]amino}-2-methylpyrido[3,4-d]pyrimidin-6-yl)azetidin-3-yl]benzenesulfonamide] | 170 nM
18 | Cc1nc(NC(C)c2ccc(-c3ccccc3CN(C)C)s2)c2cc(N3CC(NS(=O)(=O)Cc4ccccc4)C3)ncc2n1 (stereo not shown) [Example 95, N-[1-(4-{[1-(5-{2-[(dimethylamino)methyl]phenyl}thiophen-2-yl)ethyl]amino}-2-methylpyrido[3,4-d]pyrimidin-6-yl)azetidin-3-yl]-1-phenylmethanesulfonamide] | 204 nM
19 | Cc1nc(NC(C)c2ccc(-c3ccccc3CN(C)C)s2)c2cc(N3CC(NC(=O)Nc4ccccc4)C3)ncc2n1 (stereo not shown) [Example 96, 1-[1-(4-{[1-(5-{2-[(dimethylamino)methyl]phenyl}thiophen-2-yl)ethyl]amino}-2-methylpyrido[3,4-d]pyrimidin-6-yl)azetidin-3-yl]-3-phenylurea] | 206 nM
